Source: patent US20240181049A1, “HARNESSING THE POWER OF MICROBIOTA AND METABOLITES FOR THE TREATMENT OF CANCER” (UTI LIMITED PARTNERSHIP, priority 2019, published 2024)

System: naïve OVA323-339-specific OT-II CD4^+ T cells
Experiment: BMDC / naive OT-II CD4+ T cell co-culture, Th1 differentiation
Assay type: cell-based, mice
Conditions: 2 mM inosine, 48 hours
From the text: FIG. 4A-4K: Effect of inosine on T cell differentiation and dependency on classical dendritic cells of ICB therapy efficacy. (a) Scatter plot of untargeted metabolomics data in the serum of anti-CTLA-4 treated, tumor-bearing B.p. monocolonized compared to C.sp. monocolonized and germ-free (GF) mice. Grey circles or dotted grey circles depict inosine or inosine fragments/adducts, respectively. […] (c) Naïve CD4^+ T cells were co-cultured with bone marrow derived dendritic cells and IFN-γ. Quantification of T-bet^+CD3ε^+CD4^+ T cells 48 hours after co-culture in the presence or absence of inosine, A2A receptor inhibitor (ZM241385), cell permeable cAMP (db-cAMP) and protein kinase A inhibitor (RP-8-CPT-CAMPS). (d) Same as (c) without IFN-γ. (e) Representative plot and quantification (left and right panel) of phospho-CREB (Ser133) levels in naïve CD4^+ T cells cultured with anti-CD3/anti-CD28 coated beads for 1 hour in the presence or absence of inosine. (f) Schematic overview of experimental setup to deplete classical dendritic cells during MC38 tumor challenge and anti-CTLA-4 treatment. Intratumoral (g) frequency of CD8^+ T cells (h) IFN-γ^+CD8^+ T cells. (i and j) same as (g and h), but CD4^+ T cells and (k) tumor weight at […]. Data are mean±SEM and pooled from two individual experiments (a-b) n=5-8 samples/group (c-e) 10-15 biological replicates/group (f-k) 10 mice/group. *, P<0.05; **, P<0.01; ***, P<0.001; ****, P<0.0001
Bone marrow derived dendritic cells (BMDCs) were generated from flushed bone marrow cells, maintained in RPMI-1640 (Sigma) supplemented with 10% FBS, 50 μm 2-Mercaptoethanol (Sigma) 100 units/ml penicillin, 100 μg/ml streptomycin sulfate and 20 ng/ml rm GM-CSF (R&D). Medium was exchanged after 48 hours and 72 hours. 5 days after culture, a magnetic cell sorting step was performed to enrich for CD11c^+ cells (Miltenyi Biotec). CD11c^+ cells were seeded in 96 flat bottom wells and pulsed with 20 ng/ml OVA323-339 and 100 ng/ml LPS (both Sigma) for 18 hours. In some conditions BMDCs were also cultured with 10 ng/ml rmIFN-γ (R&D).
Negative selection magnetic cell sorting (Miltenyi Biotec) was used to enrich naïve OT-II CD4^+ T cells. Naïve OT-II CD4^+ T cells were then co-cultured with BMDCs at a ratio of 2:1 or stimulated with anti-CD3/anti-CD28 T cell activation beads (Thermofisher) at a ratio of 1:1 for 48 hours prior to restimulation with PMA/lonomycin in the presence of Brefeldin-A and analysis (see Single cell preparation and flow cytometry for details). In some conditions cells were additionally cultured with various combinations of 2 μg/ml anti-CTLA-4, 100 μM db-cAMP (Sigma), 5 μM ZM 241385 (Sigma), 300 μM Rp-8-CPT-CAMPS (Cayman Chemical) or 2 mM inosine (Sigma) as described previously (He et al., 2017; Yao et al., 2013).

In the case of `OC[C@H]1O[C@@H](n2cnc3c(O)ncnc32)[C@H](O)[C@@H]1O` [inosine], the Th1 induction (in the absence of IFN-γ) is reported as “reduced Th1 induction” and the “Th1 differentiation of naïve T cells (T-bet+)” value (in the presence of exogenous IFN-γ) is reported as “strongly boosted Th1 differentiation of naïve T cells”.
